This note sets out measurements from patent US20050095241A1, “Estrogen receptor modulators and uses thereof” (priority 2003, published 2005).

In assay [1] the target is T1, ERα (Homo sapiens, UniProt P03372).
T1 sequence (P03372 1-595): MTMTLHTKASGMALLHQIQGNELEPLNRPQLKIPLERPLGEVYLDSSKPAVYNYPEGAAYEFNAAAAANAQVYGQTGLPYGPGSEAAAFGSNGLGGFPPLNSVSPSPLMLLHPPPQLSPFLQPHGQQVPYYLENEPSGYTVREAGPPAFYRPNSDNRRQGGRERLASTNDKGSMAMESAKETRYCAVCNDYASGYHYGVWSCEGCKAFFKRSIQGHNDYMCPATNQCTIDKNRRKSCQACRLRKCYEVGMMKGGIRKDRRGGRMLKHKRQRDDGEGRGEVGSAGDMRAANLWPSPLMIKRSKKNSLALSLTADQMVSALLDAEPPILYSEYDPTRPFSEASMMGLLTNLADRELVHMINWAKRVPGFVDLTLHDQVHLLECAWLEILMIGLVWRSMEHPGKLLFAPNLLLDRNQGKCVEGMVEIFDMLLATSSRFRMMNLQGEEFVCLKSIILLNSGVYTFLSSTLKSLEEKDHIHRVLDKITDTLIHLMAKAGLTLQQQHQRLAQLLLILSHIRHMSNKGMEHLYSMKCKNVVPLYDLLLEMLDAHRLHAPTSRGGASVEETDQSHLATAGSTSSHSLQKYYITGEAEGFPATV
Nature of the assay: 3XEREluc reporter assay with ERα specific ligand in Ishikawa cells. The format is cell-based. The settings on record: PELP1-transfected Ishikawa cells treated with PPT; FIG. 7C. On the procedure:
(§1) PELP1 is widely expressed in endometrial cancer cells including the widely used endometrial cell lines (Ishikawa and RL 95-2). Control MCF-7 (ERα-positive) and MDA-MB-231 (ERβ-positive) breast cancer cells were also analyzed. (FIG. 7A). […] PELP1 modulation of the transactivation functions of both ER subtypes was performed using ERα or ERβ specific ligands. […] PELP1 also promotes ERβ transcriptional activity in Ishikawa cells when cotransfected with PELP1 (FIG. 7F). Further, endogenous PELP1 effectively interacts with ERβ in Ishikawa cells in a ligand-dependent manner (FIG. 7G).
(In general: A reporter such as luciferase makes a cellular process visible.)

For a further assay, the system named is ERE reporter gene. As to the kind of experiment: ERE reporter gene assay in Ishikawa cells with or without PELP1 H1 mutant. The format is cell-based, human. Conditions: Ishikawa cells transfected with ERE reporter gene, treated or not treated with estrogen; FIG. 1E. The text has this: Ishikawa (human endometrial adenocarcinoma) cells were transfected with ERE reporter gene with or without the PELP1 H1 mutant. […]

The next assay relates to Ishikawa cells. Nature of the assay: Tamoxifen-mediated agonist signaling, reporter gene and cell growth assays, Ishikawa cells. The class given is cell-based. The settings on record: Ishikawa cells co-transfected with ERE reporter gene; two days. The text has this:
(§2) Interference with PELP1 function blocks tamoxifen-mediated agonist activity in endometrial cell lines. Disruption of PELP1 functions was examined to assess interference with tamoxifen-mediated agonist signaling using reporter gene assays and cell growth assays performed in an endometrial cell line (Ishikawa) and a breast cancer cell line (MCF-7). Cancer cells were co-transfected with ERE reporter gene along with either (a) PELP1 cDNA, (b) PELP1 H1 […]), (c) PELP1 mutant cDNA lacking the nuclear localization signal (PELP-NLS mutant), or (d) PELP1-specific siRNA. Cells were stimulated with estrogen for two days and reporter gene activity and cell number were measured.

For the next assay, the system named is ERE luciferase reporter. Nature of the assay: ERE luciferase reporter assay in MCF-7, Ishikawa, HeLa and SaoS2 cells. Conditions: E2 10^−9M, 24 hours.
The target in assay [2] is T1, ERα. As to the kind of experiment: E2-mediated transactivation with PELP1 mutant lacking C-terminal histone-binding region. Conditions: FIG. 9.
The next assay relates to MCF-7 cells. Nature of the assay: Tamoxifen-mediated agonist signaling, reporter gene and cell growth assays, MCF-7 cells. The format is cell-based. The settings on record: MCF-7 cells co-transfected with ERE reporter gene; two days.
Description: as §2

In the next assay the test system is ER. Nature of the assay: ER transactivation assay (ERE-luciferase) in ER-positive Ishikawa cells. The format is cell-based. Conditions: coexpression of PELP1, compared to 6 fold in vector-transfected cells, FIG. 7B. The method, then:
as §1

As for `CCCc1c(-c2ccc(O)cc2)nn(-c2ccc(O)cc2)c1-c1ccc(O)cc1` [PPT], the “increase of 3XEREluc reporter activity” value on ERα [1] is 9 times more than the vector-transfected control.
As for “PELP1 H1 mutant: C-terminal deleted PELP1 mutant (aa 1-877), stop codon after amino acid 877, lacks Histone H1 binding domain; SEQ ID NO:14”, in the assay on ERE reporter gene, the “estrogen-mediated transcriptional activation (ERE reporter gene activity)” value is reported as “blocking of estrogen-mediated transcriptional activation”. For the same molecule, in the assay on Ishikawa cells, the tamoxifen-mediated agonist activity entry was “disrupted tamoxifen-mediated agonist activity”. The “ERE luciferase reporter activity” value is reported as “effectively suppressed the estrogen mediated ER coactivation functions” in the assay on ERE luciferase reporter (FIG. 2) and “substantially reduced the magnitude of the transcriptional activation by estrogen” in the assay on ERE luciferase reporter (FIG. 2, listed as Histone H1 mutant). Besides, the ERα mediated transcription entry with ERα [2] was “blocks ERα mediated transcription”.
Take “wild-type PELP1: Proline, glutamic acid and leucine rich protein 1, full length, expressed from PELP1 cDNA; SEQ ID NO:1”: the tamoxifen-mediated agonist activity result in the assay on Ishikawa cells is listed as “augmented tamoxifen-mediated agonist activity”; with MCF-7 cells it was “not in MCF-7 cells”. For the same molecule, the “increase of ERE-luciferase (luc) activity in ligand-stimulated cells” value in the assay with ER amounted to 9 fold.
